Laboratory results reported in patent US20250228826A1, “COMBINATION OF A GREMLIN-1 ANTAGONIST WITH AN INHIBITOR OF RAS-RAF-MEK-ERK SIGNALLING” (UCB BIOPHARMA SRL, priority 2022, published 2025).
“And” between values parts separate entries of the source, which are not always exact repeats. Equal values may be shown once.

Key:
[1] = system: pancreatic tumours in KPC mice; assay: Tumour volume by 3D ultrasound imaging in KPC mice (Example 5); assay type: in vivo, mouse
Procedure: The VisualSonics Vevo 3100 preclinical imaging platform (FUJIFILM VisualSonics, Toronto, Canada) was used for high-resolution ultrasound imaging to confirm tumour diagnosis and for weekly monitoring of tumour progression. Anaesthesia was induced and maintained with a mixture of isoflurane and medical air. Tumour volume was calculated weekly for each mouse and plotted longitudinally.
(§1) Mice were monitored 3 times weekly until a diagnosis of pancreatic cancer was made by abdominal palpation and confirmed by ultrasound imaging. […] Mice were monitored daily and sacrificed when reaching ethical endpoint.
(§2) Statistical assessment of survival of these mice from start of treatment was carried out using a Cox's proportional hazards model to calculate hazard ratios. Tumour volume data at day 7 data were analysed using a linear model suitable for a randomised design, fitting Treatment Tumour volume at day 0 was used as a covariate to increase the precision of the estimates.
The volume of the pancreatic tumours in control or treated KPC mice was measured over time using 3D tumour imaging by ultrasound.

[2] = system: pancreatic tumours in KPC mice; assay: Survival of KPC mice from start of treatment, Kaplan-Meier and Log-Rank (Examples 3 and 4); assay type: in vivo; settings: for Median survival: KPC mice survival cohort
From the text: (§3) LSL-Kras^G12D/+; Trp53^R172H/+; Pdx1-Cre (KPC) mice have been described previously (Hingorani et al., 2005). Mice were generated by crossing mice bearing Pdx1-Cre, and conditional LSL-KrasG12D or LSL-Trp53R172H alleles (strains 01XJ6 and 01XL9, Mouse Models of Human Cancer Consortium [MMHCC], NCI-Frederick, Frederick, MD, USA). Mice on a mixed background were bred in-house at the CRUK Beatson Institute and maintained in conventional caging with environmental enrichment, access to standard chow and water ad libitum. Genotyping was performed by Transnetyx (Cordoba, TN, USA). Mice of both sexes were recruited onto study. All animal experiments were performed under a UK Home Office licence and approved by the University of Glasgow Animal Welfare and Ethical Review Board.
Mice were monitored 3 times weekly until a diagnosis of pancreatic cancer was made by abdominal palpation and confirmed by ultrasound imaging. […] There were >12 mice per group. Mice were monitored daily and sacrificed either at 7 days post-initiation of treatment (4 mice per group) or when reaching ethical endpoint (>8 mice per group, symptoms include abdominal distension, cachexia, intermittent hunching or reduced mobility, piloerection, mild diarrhoea, anaemia). Statistical assessment of survival of these mice from start of treatment was carried out by Kaplan-Meier and Log-Rank analysis.
Mice were monitored at least weekly by palpation until pancreatic tumours were detectable.
For the survival cohort (Table 4), high resolution ultrasound imaging was performed weekly over the treatment period in order to monitor the tumour burden of each individual mouse on treatment. Mice remained on study and were closely monitored until ethical endpoint was reached, at which time they were sacrificed as per institutional guidelines.

[3] = system: pancreatic tumours in KPC mice; assay: Survival of KPC mice, Cox's proportional hazards model (Example 5); assay type: in vivo, mouse; settings: for Median survival: KPC mice, Example 5 cohort (Table 8), Ab7326 mIgG1 30 mg/kg s.c. twice weekly, Selumetinib 25 mg/kg p.o. b.i.d., UCB-554 10 mg/kg p.o. every 2 days; for Hazard ratio Ab7326/treatment: comparator Ab7326 alone
From the text: as §3, §1, §2

Row | Structure (SMILES) | tumour volume at day 7 after start of treatment compared to vehicle or Ab7326 treatment alone [1] | Median survival ([2]; Example 4, same doses as Table 4) | Median survival ([2]; Table 4 (text b395 gives days), Ab7326 mIgG1 30 mg/kg s.c. twice weekly, Selumetinib 25 mg/kg p.o. b.i.d., Selumetinib arm historical data) | Days on Rx ([2]; survival of individual KPC mice on treatment, one line per mouse (Table 6)) | Median survival [3] | Hazard ratio Vehicle/treatment ([3]; Table 10, combined dataset Table 4 + Table 8, Cox model) | Hazard ratio Ab7326/treatment ([3]; Table 10, combined dataset Table 4 + Table 8) | survival of KPC mice over vehicle only control or Ab7326 treatment ([3]; Example 5 cohort, in words) | Hazard ratio Vehicle/treatment ([3]; Table 9, Example 5 cohort, Cox model, >1 favours treatment) | Hazard ratio Ab7326/treatment ([3]; Table 9, Example 5 cohort, Cox model)
1 | Cn1cnc2c(F)c(Nc3ccc(Br)cc3Cl)c(C(=O)NOCCO)cc21 [Selumetinib, 6-(4-bromo-2-chloroanilino)-7-fluoro-N-(2-hydroxyethoxy)-3-methylbenzimidazole-5-carboxamide] | mean tumour volume is reduced | 17 days | 17 | 9 Days and 13 Days and 15 Days and 17 Days (2×) and 20 Days and 32 Days and 33 Days | 22 days | 1.77 | 1.31 |  |  | 
2 | NCC1CN(C(=O)c2c(Nc3ccc(I)cc3F)sc3ncccc23)C1 [UCB-554, [3-(Aminomethyl)azetidin-1-yl]-{2-[(2-fluoro-4-iodophenyl)amino]thieno[2,3-b]pyridin-3-yl}-methanone] | tumour volume is reduced |  |  |  | 21 days |  |  | moderate increase in survival | 2.04 | 2.50
